The test system of series [1] is tobacco leaves. The conditions noted are these: peptides described in prior applications; cited from earlier work.
Series [2] concerns tobacco leaves. Put plainly: Hypersensitive response test of purified Fresno-p5-21 infused into tobacco leaves. Format: in vivo. Conditions: after 2 days. As to the method:
The production and purification procedure of Examples 4 and 5 were scaled up to 1 L to produce a quantity of protein appropriate for hypersensitive response elicitation in tobacco leaves.
Briefly, 1 L of LB culture media was supplemented with 10 ug/ml Kanamycin and cells were grown as in Example 3 for 2 days in a baffled flask. Cells were harvested at 6000 g for 20 minutes at 4° C. Culture supernatant was removed from the cells and the cells were resuspended in 20 ml of Bugbuster Protein Extraction Reagent supplemented with 50 ug/ml lysozyme. The sample was gently rocked at room temperature for 30 minutes and then frozen on liquid nitrogen and stored at −80° C.
The sample was thawed on ice and a 1/50 volume of 500 mM imidazole was added for a final concentration of 10 mM imidazole. 8 ml of the sample was mixed with 2 ml of settled Ni-NTA agarose resin (5-Prime) end-over-end for 2 hours at 4° C. The column was then settled for 20 minutes and allowed to flow by gravity. The flowthrough was collected. The resin was washed with 5 column volumes of 50 mM sodium phosphate, 15 mM imidazole, 200 mM NaCl. Finally, the protein was eluted with 250 mM imidazole, pH 7.5. […] The protein concentration was quantified by UV/Vis spectroscopy using a Nanodrop 2000 (Thermo Fisher Scientific, Waltham, MA, USA). […]

Series [3] is described as follows: Confirmation of soluble protein in bacterial cell lysates. In kind it is physicochemical. Conditions: B. subtilis lysate, Bugbuster plus lysozyme, 20,000 g for 10 minutes at 4° C. As to the method: Fluorescent colonies from Example 3 were inoculated into 5 ml cultures of LB medium supplemented with 10 ug/ml Kanamycin and grown for 2 days with 170 rpm shaking at 37° C. Cells were harvested by centrifugation (5000 g for 15 minutes at 4° C.). The culture was decanted away from the cell pellet. The cell pellets were resuspended in 1 ml each of Bugbuster Protein Extraction Reagent (EMD Millipore, Billerica, MA, USA) supplemented with 200 ug/ml of lysozyme. Lysis was allowed to proceed for 20 minutes at room temperature (20° C.). The lysates were centrifuged at 20,000 g for 10 minutes at 4° C. to separate soluble from insoluble proteins.

Regarding SAGSEQQLDLLLMFIMMMLQQ [P5], the “induction of a hypersensitive response” value with tobacco leaves [1] is “capable of inducing a hypersensitive response”.

With SAGSEQQLDQLLLMFIMMMLQQ [P5a], the “induction of a hypersensitive response” value with tobacco leaves [1] is “capable of inducing a hypersensitive response”.

“SEEEEQLDOLLLAFIAAALQQ (SEEEEQLDQLLLAFIAAALQQ; P5-25)”: in the series on tobacco leaves [1], the “induction of a hypersensitive response” value was “does not”.

As for SEEQLELLLAFIAAALQQEE [P5-21], the “induction of a hypersensitive response” value in the series on tobacco leaves [1] is “capable of inducing a hypersensitive response”.

B1: Fresno-P5-21: Red fluorescent protein Fresno fused at C-terminus to harpin peptide P5-21 and 6×His tag, SEQ ID NO: 13 (protein)
chain: MNSLIKENMHMKLYMEGTVNNHHFKCTSEGEGKPYEGTQTMRIKVVEGGPLPFAFDILATSFMYGSRTFIKYPKGIPDFFKQSFPEGFTWERVTRYEDGGVVTATQDTSLEDGCLVYHVQVRGVNFPSNGPVMQKKTLGWEPNTEMLYPADGGLEGRSDMALKLVGGGHLSCSFVTTYRSKKTVGNIKMPGIHAVDHRLVRIKEADKETYVEQHEVAVAKFAGLGGGMDELYKSEEQLELLLAFIAAALQQEESRHHHHHH
Take B1: the “hypersensitive response (lesions typical of HR)” value in the series with tobacco leaves [2] (1× concentration (about 100 ug/ml protein)) and with tobacco leaves [2] (2× dilution) was “caused lesions” in each case. In addition, the “solubility of recombinant protein (colour of lysate supernatant)” value in series [3] is reported as “soluble”.

(Values after patent publication US12534700B2, “Beneficial microbes for delivery of effector peptides or proteins and use thereof” (priority 2016, dated 2026).)
